Source: patent US20230203063A1, “TRICYCLIC PYRIDONES AND PYRIMIDONES” (Erasca, Inc., priority 2019, published 2023)

Target: T1, mutant G12C K-RAS (Homo sapiens, UniProt P01116, G12C)
T1 construct: made in house; host or cells: E. coli BL21
Experiment: covalent adduct formation (CAF) with mutant G12C K-RAS
Type: binding
Set-up: covalent adduct formation (CAF): unit not given here
Conditions: for % CAF @ 10 uM, 1 h: Table 6; for covalent adduct formation (CAF): Table 7, 10 micromolar, after 60 minutes
Description: Embodiments disclosed herein are further illustrated by the following examples in Tables 1-4 and the Examples hereinbelow. The Tables indicate the compound number, structure, the observed mass spectral molecular weight peak, and covalent adduct formation (CAF) with a mutant G12C K-RAS after 60 minutes at a concentration of 10 micromolar.

SMILES	% CAF @ 10 uM, 1 h	covalent adduct formation (CAF)
C=CC(=O)N1CCN(c2nc(=O)n3c4c(c(-c5c(O)cccc5F)c(Cl)cc24)OC[C@H]3CN2CCOCC2)[C@@H](C)C1 [Example 198, (3R,10S)-7-((S)-4-acryloyl-2-methvlpiperazin-1-yl)-9-chloro-10-(2-fluoro-6-hydroxyphenyl)-3-(morpholinomethyl)-2,3-dihydro-5H-[1,4]oxazino[2,3,4-ij]quinazolin-5-one]	100%	–
C=CC(=O)N1CCN(c2nc(=O)n3c4c(c(-c5c(O)cccc5F)c(Cl)cc24)OC[C@H]3CN2CCOCC2)[C@@H](C)C1 [Example 199, (3R,10R)-7-((S)-4-aciyloyl-2-methylpiperazin-1-yl)-9-chloro-10-(2-fluoro-6-hydroxyphenyl)-3-(morpholinomethyl)-2,3-dihydro-5H-[1,4]oxazino[2,3,4-ij]quinazolin-5-one]	0%	–
C=CC(=O)N1C[C@H](C)N(c2nc(=O)n3c4c(c(-c5c(F)cccc5C(F)F)ccc24)OCC3)C[C@H]1C [Example 200, 7-((2S,5R)-4-acryloyl-2,5-dimethylpiperazin-1-yl)-10-(2-(difluoromethyl)-6-fluorophenyl)-2,3-dihydro-5H-[1,4]oxazino[2,3,4-ij]quinazolin-5-one]	0%	–
C=CC(=O)N1C[C@H](C)N(c2nc(=O)n3c4c(c(-c5c(F)ccc6[nH]cnc56)ccc24)OCC3)C[C@H]1C [Example 201, 7-((2S,5R)-4-acryloyl-2,5-dimethylpiperazin-1-yl)-10-(5-fluoro-1H-benzo[d]imidazol-4-yl)-2,3-dihydro-5H-[1,4]oxazino[2,3,4-ij]quinazolin-5-one]	0%	–
C=CC(=O)N1C[C@H](C)N(c2nc(=O)n3c4c(c(-c5c(C)ccc6[nH]nnc56)ccc24)OCC3)C[C@H]1C [Example 219, 7-((2S,5R)-4-acryloyl-2,5-dimethylpiperazin-1-yl)-10-(5-methyl-1H-benzo[d][1,2,3]triazol-4-yl)-2,3-dihydro-5H-[1,4]oxazino[2,3,4-ij]quinazolin-5-one]	0%	–
C=CC(=O)N1C[C@H](C)N(c2nc(=O)n3c4c(c(-c5c(O)cccc5F)c(Cl)cc24)OC[C@@H]3CN2CCC(F)(F)C2)C[C@H]1C [Example 220, (3S,10R)-7-((2S,5R)-4-acryloyl-2,5-dimethylpiperazin-1-yl)-9-chloro-3-((3,3-difluoropyrrolidin-1-yl)methyl)-10-(2-fluoro-6-hydroxyphenyl)-2,3-dihydro-5H-[1,4]oxazino[2,3,4-ij]quinazolin-5-one]	0%	–
C=CC(=O)N1C[C@H](C)N(c2nc(=O)n3c4c(c(-c5c(F)ccc6[nH]nnc56)ccc24)OCC3)C[C@H]1C [Example 223, 7-((2S,5R)-4-acryloyl-2,5-dimethylpiperazin-1-yl)-10-(5-fluoro-1H-benzo[d][1,2,3]triazol-4-yl)-2,3-dihydro-5H-[1,4]oxazino[2,3,4-ij]quinazolin-5-one]	0%	–
C=CC(=O)N1C[C@H](C)N(c2nc(=O)n3c4c(c(-c5c(F)ccc6cc[nH]c(=O)c56)ccc24)OCC3)C[C@H]1C [Example 224, 7-((2S,5R)-4-acryloyl-2,5-dimethylpiperazin-1-yl)-10-(7-fluoro-1-oxo-1,2-dihydroisoquinolin-8-yl)-2,3-dihydro-5H-[1,4]oxazino[2,3,4-ij]quinazolin-5-one]	0%	–
C=CC(=O)N1C[C@H](C)N(c2nc(=O)n3c4c(c(-c5c(F)ccc6c5C(=O)NC6)ccc24)OCC3)C[C@H]1C [Example 231, 7-((2S,5R)-4-acryloyl-2,5-dimethylpiperazin-1-yl)-10-(5-fluoro-3-oxoisoindolin-4-yl)-2,3-dihydro-5H-[1,4]oxazino[2,3,4-ij]quinazolin-5-one]	0%	–
C=CC(=O)N1C[C@H](C)N(c2nc(=O)n3c4c(c(-c5c(C)ccc6[nH]ncc56)c(Cl)cc24)OC[C@@H]3CCCN2C3CCC2COC3)C[C@H]1C [Example 281, (3S,10S)-3-(3-(3-oxa-8-azabicyclo[3.2.1]octan-8-yl)propyl)-7-((2S,5R)-4-acryloyl-2,5-dimethylpiperazin-1-yl)-9-chloro-10-(5-methyl-1H-indazol-4-yl)-2,3-dihydro-5H-[1,4]oxazino [2,3,4-ij] quinazolin-5-one]	0%	–
C=CC(=O)N1C[C@H](C)N(c2nc(=O)n3c4c(c(-c5ccc(F)cc5F)c(Cl)cc24)OC[C@H]3CCCN2C3CCC2CN(C)C3)C[C@H]1C [Example 321, (3R)-7-((2S,5R)-4-acryloyl-2,5-dimethylpiperazin-1-yl)-9-chloro-10-(2,4-difluorophenyl)-3-(3-(3-methyl-3,8-diazabicyclo[3.2.1]octan-8-yl)propyl)-2,3-dihydro-5H-[1,4]oxazino [2,3,4-ij] quinazolin-5-one]	71.2%	–
C=CC(=O)N1C[C@H](C)N(c2nc(=O)n3c4c(c(-c5c(C)ccc6[nH]ncc56)c(Cl)cc24)OC[C@H]3CCCN2C[C@@H]3C[C@H]2CO3)C[C@H]1C [Example 325, (3R,10S)-3-(3-((1S,4S)-2-oxa-5-azabicyclo[2.2.1]heptan-5-yl)propyl)-7-((2S,5R)-4-acryloyl-2,5-dimethylpiperazin-1-yl)-9-chloro-10-(5-methyl-1H-indazol-4-yl)-2,3-dihydro-5H-[1,4]oxazino [2,3,4-ij] quinazolin-5-one]	0%	–

Continued, values first:

% CAF @ 10 uM, 1 h	covalent adduct formation (CAF)	SMILES
–	96.6	C=CC(=O)N1CCN(c2nc(=O)n3c4c(c(-c5c(F)cc(F)cc5F)c(Cl)cc24)SC[C@H]3CCCN2C[C@@H]3C[C@H]2CO3)[C@@H](C)C1 [Example 339, (R)-3-(3-((1S,4S)-2-oxa-5-azabicyclo-[2.2.1]heptan-5-yl)-propyl)-7-((S)-4-acryloyl-2-methyl-piperazin-1-yl)-9-chloro-10-(2,4,6-trifluorophenyl)-2H-[1,4]thiazino[2,3,4-ij]-quinazolin-5(3H)-one]
–	96.9	C=CC(=O)N1CCN(c2nc(=O)n3c4c(c(-c5c(F)cc(F)cc5F)c(Cl)cc24)SC[C@@H]3CCCN2C[C@@H]3C[C@H]2CO3)[C@@H](C)C1 [Example 340, (S)-3-(3-((1S,4S)-2-oxa-5-azabicyclo-[2.2.1]heptan-5-yl)-propyl)-7-((S)-4-acryloyl-2-methyl-piperazin-1-yl)-9-chloro-10-(2,4,6-trifluorophenyl)-2H-[1,4]thiazino[2,3,4-ij]-quinazolin-5(3H)-one]
–	96.5	C=CC(=O)N1CCN(c2nc(=O)n3c4c(c(-c5ccc(F)cc5F)c(Cl)cc24)SC[C@H]3CCCN2C[C@@H]3C[C@H]2CO3)[C@@H](C)C1 [Example 341, (3R)-3-(3-((1S,4S)-2-oxa-5-azabicyclo[2.2.1]heptan-5-yl)propyl)-7-((S)-4-acryloyl-2-methylpiperazin-1-yl)-9-chloro-10-(2,4-difluorophenyl)-2H-[1,4]thiazino[2,3,4-ij]quinazolin-5 (3H)-one]
–	94.7	C=CC(=O)N1CCN(c2nc(=O)n3c4c(c(-c5ccc(F)cc5F)c(Cl)cc24)SC[C@@H]3CCCN2C[C@@H]3C[C@H]2CO3)[C@@H](C)C1 [Example 342, (3S)-3-(3-((1S,4S)-2-oxa-5-azabicyclo [2.2.1]heptan-5-yl)-propyl)-7-((S)-4-acryloyl-2-methyl-piperazin-1-yl)-9-chloro-10-(2,4-difluorophenyl)-2H-[1,4]thiazino[2,3,4-ij]-quinazolin-5(3H)-one]
–	96.7	C=CC(=O)N1CCN(c2nc(=O)n3c4c(c(-c5c(F)cc(F)cc5F)c(Cl)cc24)SC[C@@H]3CC2CCN(C)CC2)[C@@H](C)C1 [Example 343, (S)-7-((S)-4-acryloyl-2-methylpiperazin-1-yl)-9-chloro-3-((1-methylpiperidin-4-yl)-methyl)-10-(2,4,6-trifluorophenyl)-2H-[1,4]thiazino[2,3,4-ij]-quinazolin-5(3H)-one]
–	94.8	C=CC(=O)N1CCN(c2nc(=O)n3c4c(c(-c5c(F)cc(F)cc5F)c(Cl)cc24)SC[C@H]3CC2CCN(C)CC2)[C@@H](C)C1 [Example 344, (R)-7-((S)-4-acryloyl-2-methylpiperazin-1-yl)-9-chloro-3-((1-methylpiperidin-4-yl)-methyl)-10-(2,4,6-trifluorophenyl)-2H-[1,4]thiazino[2,3,4-ij]-quinazolin-5(3H)-one]
–	82.4	C=CC(=O)N1CCN(c2nc(=O)n3c4c(c(-c5ccc(F)cc5F)c(Cl)cc24)SC[C@H]3CC2CCN(C)CC2)[C@@H](C)C1 [Example 345, (3R)-7-((S)-4-acryloyl-2-methylpiperazin-1-yl)-9-chloro-10-(2,4-difluorophenyl)-3-((1-methylpiperidin-4-yl)-methyl)-2H-[1,4]-thiazino-[2,3,4-ij]-quinazolin-5(3H)-one]
–	79.3	C=CC(=O)N1CCN(c2nc(=O)n3c4c(c(-c5ccc(F)cc5F)c(Cl)cc24)SC[C@H]3CN2CCN(CC)CC2)[C@@H](C)C1 [Example 346, (3R)-7-((S)-4-acryloyl-2-methylpiperazin-1-yl)-9-chloro-10-(2,4-difluorophenyl)-3-((4-ethylpiperazin-1-yl)-methyl)-2H-[1,4]-thiazino[2,3,4-ij]-quinazolin-5(3H)-one]
